Measurements: ChEMBL document CHEMBL4622847, “Synthesis and structure-activity relationships of thieno[2,3-d]pyrimidines as atypical protein kinase C inhibitors to control retinal vascular permeability and cytokine-induced edema” (Bioorg Med Chem, 2020)
Calls of active or inactive are those of the source. The rule behind the calls is not given here.

Key:
[1] = target: T1, Protein kinase C zeta type (Homo sapiens, UniProt Q05513); assay: Inhibition of recombinant full-length human aPKCzeta using CREBtide as substrate incubated for 3 hrs in presence of ATP by Kinase Glo luminescent assay
T1 sequence (Q05513 whole entry): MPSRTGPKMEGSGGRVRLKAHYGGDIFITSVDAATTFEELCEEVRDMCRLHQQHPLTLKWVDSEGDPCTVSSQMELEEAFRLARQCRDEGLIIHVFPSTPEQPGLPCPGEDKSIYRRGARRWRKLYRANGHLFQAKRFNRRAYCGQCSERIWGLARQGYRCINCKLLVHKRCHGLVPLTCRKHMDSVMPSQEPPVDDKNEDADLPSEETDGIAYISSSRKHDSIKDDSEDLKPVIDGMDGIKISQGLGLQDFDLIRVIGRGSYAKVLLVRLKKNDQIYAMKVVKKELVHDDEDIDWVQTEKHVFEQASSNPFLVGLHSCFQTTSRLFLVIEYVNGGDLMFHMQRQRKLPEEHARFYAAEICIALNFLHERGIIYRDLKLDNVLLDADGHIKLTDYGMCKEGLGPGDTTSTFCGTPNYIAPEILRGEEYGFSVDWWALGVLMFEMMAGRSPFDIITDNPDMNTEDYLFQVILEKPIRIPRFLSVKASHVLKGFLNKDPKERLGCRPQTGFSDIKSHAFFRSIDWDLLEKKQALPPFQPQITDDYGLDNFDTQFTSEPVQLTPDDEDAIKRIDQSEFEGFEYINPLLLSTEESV

[2] = Inhibition of VEGF-induced permeability in BREC cells incubated for 2 hrs; type: functional, cell-based, Bos taurus
[3] = species: Bos taurus; assay: Inhibition of VEGF-induced permeability in BREC cells at 3 uM incubated for 2 hrs; type: functional, cell-based
[4] = species: Bos taurus; assay: Inhibition of VEGF-induced permeability in BREC cells at 1 uM incubated for 2 hrs; type: functional, cell-based
[5] = species: Bos taurus; assay: Inhibition of VEGF-induced permeability in BREC cells at 0.01 uM incubated for 2 hrs; type: functional, cell-based
[6] = Cytotoxicity against […] BREC cells at 0.03 to 1 uM; type: cell-based
[7] = target: T2, Protein kinase C iota type (Homo sapiens, UniProt P41743); assay: Inhibition of recombinant full-length human aPKCiota using CREBtide as substrate incubated for 3 hrs in presence of ATP by kinase Glo luminescent assay
T2 sequence (P41743 whole entry): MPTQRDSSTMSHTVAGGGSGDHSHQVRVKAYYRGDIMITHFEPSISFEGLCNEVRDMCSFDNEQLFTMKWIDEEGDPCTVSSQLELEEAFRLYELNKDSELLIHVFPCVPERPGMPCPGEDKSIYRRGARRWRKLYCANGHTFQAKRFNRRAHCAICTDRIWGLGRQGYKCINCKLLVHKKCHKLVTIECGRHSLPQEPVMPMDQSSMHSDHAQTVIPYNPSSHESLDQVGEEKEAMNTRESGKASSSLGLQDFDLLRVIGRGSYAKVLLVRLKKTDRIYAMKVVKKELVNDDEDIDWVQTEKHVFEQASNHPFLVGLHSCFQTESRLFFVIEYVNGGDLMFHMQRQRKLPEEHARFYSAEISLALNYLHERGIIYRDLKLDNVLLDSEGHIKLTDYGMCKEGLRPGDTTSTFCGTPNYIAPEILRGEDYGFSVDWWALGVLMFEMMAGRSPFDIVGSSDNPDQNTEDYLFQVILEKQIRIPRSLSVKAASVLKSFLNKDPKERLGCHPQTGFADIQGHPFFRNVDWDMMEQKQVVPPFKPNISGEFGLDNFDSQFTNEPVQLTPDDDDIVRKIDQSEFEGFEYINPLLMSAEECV

[8] = target: T1, Protein kinase C zeta type; assay: Inhibition of recombinant full-length human aPKCzeta in presence of ATP at Km concentration by radiometric assay
[9] = target: T2, Protein kinase C iota type; assay: Inhibition of recombinant full-length human aPKCiota in presence of ATP at Km concentration by radiometric assay
[10] = species: Bos taurus; assay: Inhibition of VEGF-induced permeability in BREC cells at 0.01 to 1.0 uM incubated for 2 hrs; type: functional, cell-based
[11] = target: Protein kinase C beta type (Homo sapiens) (UniProt P05771); assay: Inhibition of PKCbeta1 (unknown origin) at 5 uM by radiometric kinase assay
Protein kinase C beta type (Homo sapiens), sequence (P05771 2-671 limits assumed): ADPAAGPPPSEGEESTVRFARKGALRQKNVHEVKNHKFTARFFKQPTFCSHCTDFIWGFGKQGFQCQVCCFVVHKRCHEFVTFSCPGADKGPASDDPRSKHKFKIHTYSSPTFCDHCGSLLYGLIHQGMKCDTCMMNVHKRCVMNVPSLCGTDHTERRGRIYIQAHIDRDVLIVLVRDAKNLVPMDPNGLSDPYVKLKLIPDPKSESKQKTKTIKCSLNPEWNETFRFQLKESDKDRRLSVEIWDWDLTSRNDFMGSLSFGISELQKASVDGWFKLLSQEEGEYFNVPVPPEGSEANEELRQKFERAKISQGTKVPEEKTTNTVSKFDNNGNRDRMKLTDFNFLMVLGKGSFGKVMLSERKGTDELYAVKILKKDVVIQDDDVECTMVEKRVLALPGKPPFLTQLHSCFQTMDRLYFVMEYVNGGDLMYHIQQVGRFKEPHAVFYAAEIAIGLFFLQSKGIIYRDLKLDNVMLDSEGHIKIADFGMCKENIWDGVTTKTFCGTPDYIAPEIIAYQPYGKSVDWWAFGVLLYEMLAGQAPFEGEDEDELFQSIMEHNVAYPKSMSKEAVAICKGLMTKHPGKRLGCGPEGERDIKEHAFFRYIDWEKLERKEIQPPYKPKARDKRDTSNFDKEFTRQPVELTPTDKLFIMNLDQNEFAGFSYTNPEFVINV

[12] = species: Homo sapiens; assay: Inhibition of PKA (unknown origin) at 5 uM by radiometric kinase assay
[13] = target: Rho-associated protein kinase 2 (Homo sapiens) (UniProt O75116); assay: Inhibition of ROCK2 (unknown origin) at 5 uM by radiometric kinase assay
Rho-associated protein kinase 2 (Homo sapiens), sequence (O75116 whole entry, looked up): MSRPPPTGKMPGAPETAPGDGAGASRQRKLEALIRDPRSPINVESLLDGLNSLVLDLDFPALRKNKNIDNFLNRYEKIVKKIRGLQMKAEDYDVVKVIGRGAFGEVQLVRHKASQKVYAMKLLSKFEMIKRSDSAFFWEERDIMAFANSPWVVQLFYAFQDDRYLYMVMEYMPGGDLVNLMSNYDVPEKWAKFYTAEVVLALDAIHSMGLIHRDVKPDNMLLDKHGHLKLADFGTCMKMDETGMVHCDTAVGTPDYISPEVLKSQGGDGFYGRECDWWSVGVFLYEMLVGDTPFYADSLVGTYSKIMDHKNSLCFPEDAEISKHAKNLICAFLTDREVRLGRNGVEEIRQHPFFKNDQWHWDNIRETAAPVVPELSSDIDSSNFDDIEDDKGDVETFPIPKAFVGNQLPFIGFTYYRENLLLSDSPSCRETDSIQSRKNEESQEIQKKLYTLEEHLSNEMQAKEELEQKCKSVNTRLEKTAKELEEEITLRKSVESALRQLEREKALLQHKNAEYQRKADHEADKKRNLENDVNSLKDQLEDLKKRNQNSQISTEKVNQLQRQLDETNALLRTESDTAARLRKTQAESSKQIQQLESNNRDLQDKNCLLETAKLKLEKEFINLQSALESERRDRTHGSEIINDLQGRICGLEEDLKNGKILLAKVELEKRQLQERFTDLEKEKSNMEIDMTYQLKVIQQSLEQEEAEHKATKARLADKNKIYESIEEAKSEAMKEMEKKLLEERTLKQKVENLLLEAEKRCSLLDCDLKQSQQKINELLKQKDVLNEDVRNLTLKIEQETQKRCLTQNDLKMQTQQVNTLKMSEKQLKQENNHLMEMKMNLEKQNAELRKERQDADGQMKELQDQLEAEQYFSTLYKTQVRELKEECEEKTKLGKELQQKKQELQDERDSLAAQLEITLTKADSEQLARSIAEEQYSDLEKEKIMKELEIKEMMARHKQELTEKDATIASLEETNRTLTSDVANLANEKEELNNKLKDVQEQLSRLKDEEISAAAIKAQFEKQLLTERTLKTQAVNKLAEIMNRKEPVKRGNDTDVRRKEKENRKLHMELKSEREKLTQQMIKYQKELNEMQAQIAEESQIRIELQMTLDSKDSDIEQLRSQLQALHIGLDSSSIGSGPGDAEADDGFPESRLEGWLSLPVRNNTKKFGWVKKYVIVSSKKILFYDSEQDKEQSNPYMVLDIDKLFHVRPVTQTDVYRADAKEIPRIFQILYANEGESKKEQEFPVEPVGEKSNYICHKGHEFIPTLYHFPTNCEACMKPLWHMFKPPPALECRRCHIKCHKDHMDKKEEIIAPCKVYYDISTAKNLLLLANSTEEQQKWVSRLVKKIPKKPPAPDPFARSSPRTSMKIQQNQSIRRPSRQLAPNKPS

[14] = Inhibition of PKA (unknown origin) by radiometric kinase assay; design: species or system Homo sapiens
[15] = species: Bos taurus; assay: Inhibition of VEGF-induced permeability in BREC cells in presence of Y-27632; type: functional, cell-based
[16] = tested on: HEK293; assay: Inhibition of TNFalpha-induced NFkappaB activation in HEK293 cells at 2.5 to 10 uM preincubated for 2 hrs followed by TNFalpha stimulation by luciferase assay; type: cell-based; details: Homo sapiens
[17] = Inhibition of TNFalpha-induced NFkappaB activation in HEK293 cells preincubated for 2 hrs followed by TNFalpha stimulation by luciferase assay; type: cell-based; details: Homo sapiens
[18] = tested on: HEK293; assay: Cytotoxicity against HEK293 cells assessed as effect on cell survival by WST-1 assay; type: cell-based; details: human
[19] = tested on: Rattus norvegicus; assay: Inhibition of VEGF/TNFalpha-induced retinal vascular permeability in Long-Evans rat at 1 or 3 uM administered intravitreally followed by FITC-BSA, iv injection 3 hrs post drug dose and measured after 2 hrs by spectrophotometric method; type: functional, organism-based
[20] = tested on: Rattus norvegicus; assay: Inhibition of VEGF/TNFalpha-induced retinal vascular permeability in Long-Evans rat at 3 uM administered intravitreally followed by FITC-BSA, iv injection 3 hrs post drug dose and measured after 2 hrs by spectrophotometric method relative to control; type: functional
[21] = tested on: Rattus norvegicus; assay: Effect on retinal function in overnight dark-adapted Long-Evans rat assessed as A-wave or B-wave amplitude at 3 uM administered intravitreally 3 to 5 hrs prior to exposure to a 0.1 cd.s/m2 to 10 cd.s/m2 test flash by electroretinography; type: ADME, organism-based; details: in vivo, topical_or_ocular
[22] = Microsomal stability in CD1 mouse liver microsomes assessed as half life at 1 uM in presence of beta-NADPH measured upto 60 mins by LC-MS/MS analysis; type: ADME, Microsome; details: 1 h
[23] = Cmax in CD1 mouse plasma at 20 mg/kg, po measured up to 24 hrs; type: ADME, organism-based; design: dose 20 mg/kg, route oral; details: in vivo
[24] = Tmax in CD1 mouse plasma at 20 mg/kg, po measured up to 24 hrs; type: ADME, organism-based; details: in vivo
[25] = AUC in CD1 mouse plasma at 10 mg/kg, iv measured up to 24 hrs; type: ADME, organism-based; design: dose 10 mg/kg, time < 24 hr, route intravenous; details: in vivo
[26] = AUC in CD1 mouse plasma at 20 mg/kg, po measured up to 24 hrs; type: ADME, organism-based; design: time < 24 hr, dose 20 mg/kg, route oral; details: in vivo
[27] = Terminal elimination half life in CD1 mouse plasma at 10 mg/kg, iv measured up to 24 hrs; type: ADME, organism-based; details: in vivo
[28] = Terminal elimination half life in CD1 mouse plasma at 20 mg/kg, po and measured up to 24 hrs; type: ADME, organism-based; details: in vivo
[29] = Oral bioavailability in CD1 mouse plasma at 20 mg/kg measured up to 24 hrs; type: ADME, organism-based; details: in vivo
[30] = Ratio of drug level in CD-1 mouse brain to plasma at 10 mg/kg, iv after 4 hrs by LCMS analysis; type: ADME, organism-based
[31] = Ratio of drug level in CD-1 mouse eye to plasma at 10 mg/kg, iv after 4 hrs by LCMS analysis; type: ADME, organism-based
[32] = Ratio of drug level in CD-1 mouse eye to brain at 10 mg/kg, iv after 4 hrs by LCMS analysis; type: ADME, organism-based; details: in vivo
[33] = Ratio of drug level in CD-1 mouse eye to brain at 20 mg/kg, po after 4 hrs by LCMS analysis; type: ADME, organism-based; details: in vivo
[34] = species: Homo sapiens; assay: Selectivity ratio of IC50 for inhibition of recombinant full-length human aPKCzeta using CREBtide as substrate to IC50 for of recombinant full-length human aPKCiota using CREBtide as substrate
[35] = Drug level in iv dosed CD-1 mouse eye after 24 hrs by LCMS analysis; type: ADME, organism-based; details: read-out: Drug uptake
[36] = target: T1, Protein kinase C zeta type; assay: Inhibition of recombinant full-length human aPKCzeta expressed in Sf21 insect cells using 5FAM-ERMRPRKRQGSVRRRV-NH2 as substrate in presence of ATP after 60 mins by IMAP fluorescence polarization analysis

## OC1CCN(c2nc(-c3ccncc3)nc3sc4c(c23)CCCC4)CC1
[1]
  IC50: 2400 nM
[2]
  EC50: Not Active
[3]
  inhibition: inactive

## c1cc(-c2cc(N3CCNCC3)c3c4c(sc3n2)CCCC4)ccn1
[1]
  IC50: 1150 nM
[2]
  EC50: Not Active
[4]
  inhibition: inactive

## c1cc(-c2nc(N3CCNCC3)c3c4c(sc3n2)CCCC4)ccn1
[2]
  EC50: Not Active
[5]
  inhibition: inactive
[6]
  Activity: Toxic
[4]
  inhibition: inactive

## NCCN1CCN(c2nc(-c3ccncc3)nc3sc4c(c23)CCCC4)CC1
[1]
  IC50: 420 nM

## c1cc(-c2nc(NCCN3CCNCC3)c3c4c(sc3n2)CCCC4)ccn1
[1]
  IC50: 11100 nM

## CN(C)C1CCN(c2nc(-c3ccncc3)nc3sc4c(c23)CCCC4)CC1
[2]; read-out: EC50
  EC50: 300 nM

## NCC1CCN(c2nc(-c3ccncc3)nc3sc4c(c23)CCCC4)CC1
[1]
  IC50: 520 nM
[2]; read-out: EC50
  EC50: 71 nM
[7]
  IC50: 70 nM
[8]
  IC50: 1640 nM
[9]
  IC50: 4080 nM
[10]
  inhibition: Active
[11]
  inhibition: Active
[12]
  inhibition: Active
[13]
  inhibition: Active
[14]
  IC50: 500 nM
[15]
  inhibition: Active
[16]
  inhibition: Active
[17]
  EC50: 6650 nM
[18]
  Activity: Non-Toxic
[19]
  inhibition: Active
[20]
  inhibition (INH): 100%
[21]
  Activity: Non-Toxic
[22]
  t1/2: > 1 h
[23]
  Cmax: 488 ng/mL
[24]
  Tmax: 7 h
[25]
  AUC: 4373 ng·h/mL
[26]
  AUC: 6762 ng·h/mL
[27]
  beta t1/2: 2.77 h
[28]
  beta t1/2: 7.83 h
[29]
  F: 81.7%
[30]
  Ratio: 2.3
[31]
  Kp at 4 h: 2.9
[32]
  Ratio: 1.3
[33]
  Ratio: 2
[34]
  Ratio IC50: 7.5
[35]
  concentration at 24 h: 375 ng/g

## CN1CCN(c2nc(-c3ccncc3)nc3sc4c(c23)CCCC4)CC1
[36]
  IC50: 3700 nM

## NC1CCN(c2nc(-c3ccncc3)nc3sc4c(c23)CCCC4)CC1
[2]; read-out: EC50
  EC50: 300 nM
